Results as given in US9187465B2, “Oxazole tyrosine kinase inhibitors” (Sareum Limited, priority 2007, dated 2015).

Columns and labels:
human FLT4 = target: T1, human FLT4 (Homo sapiens, UniProt P35916); test: FLT4 kinase assay (DELFIA enzyme inhibition); assay type: biochemical; details: read-out: FLT4 IC50
T1 construct: a construct expressing the human FLT4 (789-1207) with an amino terminal GST tag; host or cells: Sf9 insect cells (baculovirus)
Protocol: A GST-kinase fusion protein of 70 KDa was produced using sf9 baculovirus expression system, with a construct expressing the human FLT4 (789-1207) with an amino terminal GST tag. The protein was purified by affinity chromatography using glutathione-agarose followed by separation on a gel filtration column.
FLT4 enzyme activity is determined using a Dissociation Enhanced Lanthanide Fluorescent Immunoassay (DELFIA) with a peptide substrate derived from the MET (Tyr 1253) peptide […] with a core sequence […].
The amount of phosphorylated peptide produced is detected by means of a phospho-Tyrosine specific Europium-labelled antibody using Time-Resolved Fluorescence at Excitation 360-35 nm and Emission 620-35 nm.
Assay reactions are set up in a 25 uL final volume on a 96 well plate. […] The reaction is allowed to proceed for 30 minutes at room temperature before stopping with 100 uL Stop solution comprising of 100 mM EDTA, 1×BSA blocker in TBS (Perbio) and 0.05% Surfact-Amps20 (Perbio).
The stopped reaction is transferred to a black 96-well Neutravidin-coated plate (Perbio) and incubated for 30 minutes to capture the biotinylated peptide substrate. After washing wells 3 times with 200 uL TBS/T buffer, Anti-Phospho-Tyr-100 antibody labelled with Eu—N1 (Perkin Elmer AD0159) is added to all wells for 60 minutes at room temperature. After a repeat washing step, DELFIA Enhancement solution (Perkin Elmer) is added to all wells for 5 minutes and the fluorescence measured on a plate reader Analyst HT (Molecular Devices).
The % inhibition of the activity is calculated and plotted in order to determine the concentration of test compound required to inhibit 50% of the enzyme activity (IC50).

human Aurora A = target: T2, human Aurora A (Homo sapiens, UniProt O14965); test: Aurora A kinase assay (DELFIA enzyme inhibition); assay type: biochemical; details: read-out: Aurora A IC50
T2 construct: Histidine tag (N); host or cells: Sf9 insect cells (baculovirus)
T2 sequence (O14965 1-403): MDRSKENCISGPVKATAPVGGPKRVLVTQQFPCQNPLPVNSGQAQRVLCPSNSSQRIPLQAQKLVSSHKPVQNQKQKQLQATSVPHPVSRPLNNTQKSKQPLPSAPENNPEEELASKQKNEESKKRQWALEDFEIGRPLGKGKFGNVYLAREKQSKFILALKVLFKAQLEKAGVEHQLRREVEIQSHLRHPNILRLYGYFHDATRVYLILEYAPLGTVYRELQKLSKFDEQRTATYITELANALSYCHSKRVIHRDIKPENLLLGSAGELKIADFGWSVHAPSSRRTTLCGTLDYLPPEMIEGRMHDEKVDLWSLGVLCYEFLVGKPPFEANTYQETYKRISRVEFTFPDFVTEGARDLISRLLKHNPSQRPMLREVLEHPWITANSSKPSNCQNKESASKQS
Protocol: The protein was purified by one-step affinity chromatography using nickel-agarose […]
Assay reactions are set up in a 25 uL final volume on a 96 well plate. […] The reaction is allowed to proceed for 30 minutes at room temperature before stopping with 100 μL Stop solution comprising of 100 mM EDTA, 1×BSA blocker in TBS (Perbio) and 0.05% Surfact-Amps20 (Perbio).
The stopped reaction is transferred to a black 96-well Neutravidin-coated plate (Perbio) and incubated for 30 minutes to capture the biotinylated peptide substrate. […] After repeating the washing step, the plate is further incubated for one hour with Europium-labelled anti-rabbit antibody (Perkin Elmer AD0105). The wash step is repeated for a final time before DELFIA Enhancement solution (Perkin Elmer) is added to all wells for 5 minutes and the fluorescence measured on a plate reader Analyst HT (Molecular Devices).

T1 sequence (P35916 789-1207): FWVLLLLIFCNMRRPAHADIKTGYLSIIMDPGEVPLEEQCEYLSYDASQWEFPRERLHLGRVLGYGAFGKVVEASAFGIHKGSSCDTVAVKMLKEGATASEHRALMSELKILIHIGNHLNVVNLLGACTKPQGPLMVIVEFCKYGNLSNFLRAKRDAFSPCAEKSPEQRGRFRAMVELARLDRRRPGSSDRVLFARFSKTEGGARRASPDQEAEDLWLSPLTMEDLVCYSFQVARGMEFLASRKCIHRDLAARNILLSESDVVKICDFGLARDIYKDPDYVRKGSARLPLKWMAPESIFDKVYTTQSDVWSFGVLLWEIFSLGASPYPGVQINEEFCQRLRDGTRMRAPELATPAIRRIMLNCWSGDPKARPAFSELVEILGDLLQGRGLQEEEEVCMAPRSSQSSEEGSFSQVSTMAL

Row | Structure (SMILES) | IC50 (human FLT4) [µM] | IC50 (human Aurora A) [µM]
1 | COc1ccc(-c2nc(-c3ccccc3Cl)[nH]c2C(N)=O)cc1 [Example A-2, 2-(2-chlorophenyl)-4-(4-methoxyphenyl)-1H-imidazole-5-carboxamide] | < 100 | < 100
2 | COc1ccc(-c2nc(-c3ccccc3OC)[nH]c2C(N)=O)cc1 [Example A-3, 2-(2-methoxyphenyl)-4-(4-methoxyphenyl)-1H-imidazole-5-carboxamide] | < 100 | < 100
3 | COc1ccc(-c2nc(-c3cccc(OC)c3)[nH]c2C(N)=O)cc1 [Example A-4, 2-(3-methoxyphenyl)-4-(4-methoxyphenyl)-1H-imidazole-5-carboxamide] | < 100 | < 100
4 | COc1ccc(-c2nc(-c3ccc(OC)cc3)c(C(N)=O)[nH]2)cc1 [Example A-5, 2,4-bis(4-methoxyphenyl)-1H-imidazole-5-carboxamide] | < 100 | < 100
5 | COc1ccc(-c2nc(-c3ccccc3C)[nH]c2C(N)=O)cc1 [Example A-6, 4-(4-methoxyphenyl)-2-o-tolyl-1H-imidazole-5-carboxamideHH] | < 100 | < 100
6 | COc1ccc(-c2nc(-c3cccc(C)c3)[nH]c2C(N)=O)cc1 [Example A-7, 4-(4-methoxyphenyl)-2-m-tolyl-1H-imidazole-5-carboxamide] | < 100 | < 100
7 | COc1ccc(-c2nc(-c3ccc(C)cc3)[nH]c2C(N)=O)cc1 [Example A-8, 4-(4-methoxyphenyl)-2-p-tolyl-1H-imidazole-5-carboxamide] | < 100 | < 100
8 | COc1ccc(-c2nc(-c3c(Cl)cccc3Cl)[nH]c2C(N)=O)cc1 [Example A-10, 2-(2,6-dichlorophenyl)-4-(4-methoxyphenyl)-1H-imidazole-5-carboxamide] | < 100 | < 100
9 | COc1ccc(-c2nc(-c3ccccc3F)[nH]c2C(N)=O)cc1 [Example A-11, 2-(2-fluorophenyl)-4-(4-methoxyphenyl)-1H-imidazole-5-carboxamide] | < 100 | < 100
10 | COc1ccc(-c2nc(-c3cccnc3)[nH]c2C(N)=O)cc1 [Example A-12, 4-(4-methoxyphenyl)-2-(pyridin-3-yl)-1H-imidazole-5-carboxamide] | < 100 | < 100
11 | COc1ccc(-c2nc(-c3c[nH]c4ccccc34)[nH]c2C(N)=O)cc1 [Example A-13, 2-(1H-indol-3-yl)-4-(4-methoxyphenyl)-1H-imidazole-5-carboxamide] | < 10 | < 100
12 | COc1ccc(-c2nc(-c3c(F)cc(Br)cc3F)[nH]c2C(N)=O)cc1 [Example A-14, 2-(4-bromo-2,6-difluorophenyl)-4-(4-methoxyphenyl)-1H-imidazole-5-carboxamide] | < 100 | < 100
13 | COc1ccc(-c2nc(-c3c(F)cccc3Cl)[nH]c2C(N)=O)cc1 [Example A-15, 2-(2-chloro-6-fluorophenyl)-4-(4-methoxyphenyl)-1H-imidazole-5-carboxamide] | < 100 | < 100
14 | NC(=O)c1[nH]c(-c2c(F)cccc2F)nc1-c1cccs1 [Example A-16, 2-(2,6-difluorophenyl)-4-(thiophen-2-yl)-1H-imidazole-5-carboxamide] | < 10 | < 100

The next lines start with the values.

Row | IC50 (human FLT4) [µM] | IC50 (human Aurora A) [µM] | Structure (SMILES)
15 | < 100 | < 100 | COc1ccc(-c2nc(-c3ccncc3)[nH]c2C(N)=O)cc1 [Example B-1, 4-(4-methoxyphenyl)-2-(pyridin-4-yl)-1H-imidazole-5-carboxamide]
16 | < 100 | < 100 | COc1ccc(-c2nc(-c3csc4ccccc34)[nH]c2C(N)=O)cc1 [Example B-3, 2-(benzo[b]thiophen-3-yl)-4-(4-methoxyphenyl)-1H-imidazole-5-carboxamide]
17 | < 100 | < 100 | COc1ccc(-c2nc(-c3cn(C)c4ccccc34)[nH]c2C(N)=O)cc1 [Example B-4, 4-(4-methoxyphenyl)-2-(1-methyl-1H-indol-3-yl)-1H-imidazole-5-carboxamide]
18 | < 100 | < 100 | COc1ccc(-c2nc(-c3c(F)cccc3F)[nH]c2C(N)=O)cc1 [Example B-5, 2-(2,6-difluorophenyl)-4-(4-methoxyphenyl)-1H-imidazole-5-carboxamide]
19 | < 100 | < 100 | NC(=O)c1[nH]c(-c2c(F)cccc2F)nc1-c1ccccn1 [Example C-1, 2-(2,6-difluorophenyl)-4-(pyridin-2-yl)-1H-imidazole-5-carboxamide]
20 | < 10 | < 100 | COc1ccc(-c2oc(-c3c(F)cccc3F)nc2C(N)=O)cc1 [Example E-2, 2-(2,6-difluorophenyl)-5-(4-methoxyphenyl)oxazole-4-carboxamide]
21 | < 10 | < 100 | CN(C)c1ccc(-c2oc(-c3c(F)cccc3F)nc2C(N)=O)cc1 [Example F-3, 2-(2,6-difluorophenyl)-5-(4-(dimethylamino)phenyl)oxazole-4-carboxamide]
22 | < 10 | < 100 | NC(=O)c1nc(-c2c(F)cccc2F)oc1-c1ccsc1 [Example F-5, 2-(2,6-difluorophenyl)-5-(thiophen-3-yl)oxazole-4-carboxamide]
23 | < 10 | < 10 | NC(=O)c1nc(-c2c(F)cccc2F)oc1-c1ccncc1 [Example F-8, 2-(2,6-difluorophenyl)-5-(pyridin-4-yl)oxazole-4-carboxamide]
24 | < 10 | < 10 | NC(=O)c1ccc(-c2oc(-c3c(F)cccc3F)nc2C(N)=O)cc1 [Example F-17, 5-(4-carbamoylphenyl)-2-(2,6-difluorophenyl)oxazole-4-carboxamide]
25 | < 10 | < 100 | CC(=O)Nc1ccc(-c2oc(-c3c(F)cccc3F)nc2C(N)=O)cc1 [Example F-23, 5-(4-acetamidophenyl)-2-(2,6-difluorophenyl)oxazole-4-carboxamide]
26 | < 10 | < 100 | NC(=O)c1nc(-c2c(F)cccc2F)oc1-c1cccc(C(=O)N2CCCCC2)c1 [Example F-31, 2-(2,6-Difluorophenyl)-5-(3-(piperidine-1-carbonyl)phenyl)oxazole-4-carboxamide]
27 | < 10 | < 10 | NC(=O)c1nc(-c2c(F)cccc2F)oc1-c1ccc(NCCN2CCCCC2)cc1 [Example F-32, 2-(2,6-difluorophenyl)-5-(4-(2-(piperidin-1-yl)ethylamino)phenyl)oxazole-4-carboxamide]
28 |  | < 100 | COc1ccc(-c2oc(-c3ccc(C(F)(F)F)cc3)nc2C(N)=O)cc1 [Example N-4, 5-(4-methoxyphenyl)-2-(4-(trifluoromethyl)phenyl)oxazole-4-carboxamide]
29 |  | < 100 | COc1ccc(-c2oc(-c3ccc(C(F)(F)F)cc3F)nc2C(N)=O)cc1 [Example N-5, 2-(2-fluoro-4-(trifluoromethyl)phenyl)-5-(4-methoxyphenyl)oxazole-4-carboxamide]
30 |  | < 100 | COc1ccc(-c2oc(-c3cc(C(F)(F)F)ccc3F)nc2C(N)=O)cc1 [Example N-6, 2-(2-fluoro-5-(trifluoromethyl)phenyl)-5-(4-methoxyphenyl)oxazole-4-carboxamide]
31 |  | < 100 | COc1ccc(-c2oc(-c3ccc(C)cc3)nc2C(N)=O)cc1 [Example N-9, 5-(4-methoxyphenyl)-2-p-tolyloxazole-4-carboxamide]
32 |  | < 10 | COc1ccc(-c2oc(Nc3c(F)cccc3F)nc2C(N)=O)cc1 [Example R-9, 2-(2,6-difluorophenylamino)-5-(4-methoxyphenyl)oxazole-4-carboxamide]
